Common to all, as to test: relative viability (nuclei count vs DMSO), 5 days (fraction); higher = more cells survive
Compound in test [1]: C=CC(=O)N1CCC[C@@H](n2nc(-c3ccc(Oc4ccccc4)cc3)c3c(N)ncnc32)C1 [Ibrutinib] + COc1cccc2cc(-c3nc([C@H]4CC[C@H](C(=O)O)CC4)n4ncnc(N)c34)[nH]c12 [OSI-027] (partner 0.5 µM)
In outline: (§1)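 Relative viability divides the nuclei count in treated wells by that in vehicle wells. Lung cancer cell lines were seeded in 1536-well plates, dosed by pin tool the next day, and fixed and stained after 5 days in one step with final 0.05% Triton X-100, 1% formaldehyde and 1 ug/ml Hoechst. Dosing was a single drug or a fixed anchor-drug dose plus five library-drug doses (not always all listed) in √10 steps, and values are medians of duplicate plates imaged at 4×.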

Compound in test [2]: C=CC(=O)N1CCC[C@@H](n2nc(-c3ccc(Oc4ccccc4)cc3)c3c(N)ncnc32)C1 [Ibrutinib] + C[C@]1(O)C[C@@H](c2nc(-c3ccc4ccc(-c5ccccc5)nc4c3)c3c(N)nccn32)C1 [Linsitinib] (partner 1 µM)
In outline:
as §1

Compound in test [3]: C=CCc1cccc(/C=N/NC(=O)CN2CCN(Cc3ccccc3)CC2)c1O [PAC-1] + CC(=O)c1c(C)c2cnc(Nc3ccc(N4CCNCC4)cn3)nc2n(C2CCCC2)c1=O [Palbociclib] (partner 0.5 µM)
The method, boiled down: as §1

Compound in test [4]: C=CCc1cccc(/C=N/NC(=O)CN2CCN(Cc3ccccc3)CC2)c1O [PAC-1] + C[C@@H](Oc1cc(-c2cnn(C3CCNCC3)c2)cnc1N)c1c(Cl)ccc(F)c1Cl [Crizotinib] (partner 1 µM)
In outline:
as §1

For the cell line SK-MES-1, the relative viability in test [1] (first compound 0.005 µM) is 0.584; in test [1] (first compound 0.01581 µM), 0.568; in test [1] (first compound 0.05 µM), 0.584; in test [1] (first compound 0.1581 µM), 0.687; in test [1] (first compound 0.5 µM) it was 0.357; in test [2] (first compound 0.005 µM) it was 1.06. Further, the relative viability in test [2] (first compound 0.01581 µM) was found to be 0.937; in test [2] (first compound 0.05 µM) it was 1.11; in test [2] (first compound 0.1581 µM) it was 1.06; in test [2] (first compound 0.5 µM), 0.447; in test [3] (first compound 0.02 µM), 0.336; in test [3] (first compound 0.06325 µM) it was 0.311. Also, the relative viability in test [3] (first compound 0.2 µM) was 0.315; in test [3] (first compound 2 µM) it was 0.308; in test [4] (first compound 0.02 µM), 1.05; in test [4] (first compound 0.06325 µM) it was 1.01; in test [4] (first compound 0.2 µM), 1.01; in test [4] (first compound 2 µM), 1.01.

For the origin of these results see the supplement of paper PMC10307832.
